Data as given in ChEMBL document CHEMBL3885881, “DrugMatrix”.

Organism: Rattus norvegicus
Experiment: DrugMatrix - Regimen: Daily Repeat
Type: toxicity, organism-based, Sprague-Dawley
Set-up: regimen Daily Repeat, gender Male, age 6-8 weeks
Conditions: in vivo, po, route oral GAVAGE, vehicle 100 % WATER; for ABSOLUTE BASOPHIL / ABSOLUTE EOSINOPHIL / ABSOLUTE LYMPHOCYTE / ABSOLUTE MONOCYTE / ABSOLUTE SEGMENTED NEUTROPHIL / BASOPHIL / EOSINOPHIL / ERYTHROCYTE COUNT / HEMATOCRIT / HEMOGLOBIN / LEUKOCYTE COUNT / LYMPHOCYTE / MEAN CORPUSCULAR HEMOGLOBIN / MEAN CORPUSCULAR HEMOGLOBIN CONCENTRATION / MEAN CORPUSCULAR VOLUME / MONOCYTE / NEUTROPHIL / NUCLEATED RED BLOOD CELLS / PLATELET COUNT: tissue Blood; for ALANINE AMINOTRANSFERASE / ALBUMIN / ALKALINE PHOSPHATASE / ASPARTATE AMINOTRANSFERASE / BLOOD UREA NITROGEN / CARBON DIOXIDE / CHLORIDE / CHOLESTEROL / CREATINE PHOSPHOKINASE / CREATININE / GLUCOSE / LACTATE DEHYDROGENASE / LIPASE / PHOSPHORUS / POTASSIUM / SODIUM / TOTAL BILIRUBIN / TOTAL PROTEIN / URIC ACID: tissue Plasma
[1] = 0 mg/kg, 72 h, dose level Control, time 3 day
[2] = 0 mg/kg, 120 h, dose level Control, time 5 day
[3] = 8 mg/kg, 72 h, dose level Low, time 3 day

CCN(C(C)=O)c1cccc(-c2ccnc3c(C#N)cnn23)c1 [ZALEPLON]
ABSOLUTE BASOPHIL [1]: 0 CELLS/uL | ABSOLUTE EOSINOPHIL [1]: 58.83 CELLS/uL | ABSOLUTE LYMPHOCYTE [1]: 11823.5 CELLS/uL | ABSOLUTE MONOCYTE [1]: 169 CELLS/uL | ABSOLUTE SEGMENTED NEUTROPHIL [1]: 815.33 CELLS/uL | BASOPHIL [1]: 0% | EOSINOPHIL [1]: 0.5% | ERYTHROCYTE COUNT [1]: 5.52 x10E6/uL | HEMATOCRIT [1]: 35.77% | HEMOGLOBIN [1]: 14.28 G/DL | LEUKOCYTE COUNT [1]: 12.87 x10E3/uL | LYMPHOCYTE [1]: 91.67% | MEAN CORPUSCULAR HEMOGLOBIN [1]: 25.92 pg | MEAN CORPUSCULAR HEMOGLOBIN CONCENTRATION [1]: 39.95 G/DL | MEAN CORPUSCULAR VOLUME [1]: 64.85 fL | MONOCYTE [1]: 1.33% | NEUTROPHIL [1]: 6.5% | NUCLEATED RED BLOOD CELLS [1]: 0 /100WBC | PLATELET COUNT [1]: 1246.17 x10E3/uL | ALANINE AMINOTRANSFERASE [1]: 66 u/L | ALBUMIN [1]: 4.25 G/DL | ALKALINE PHOSPHATASE [1]: 416 u/L | ASPARTATE AMINOTRANSFERASE [1]: 106.17 u/L | BLOOD UREA NITROGEN [1]: 12.67 mg/dL | CARBON DIOXIDE [1]: 31.83 mmol/L | CHLORIDE [1]: 102.5 MEQ/L | CHOLESTEROL [1]: 69 mg/dL | CREATINE PHOSPHOKINASE [1]: 601.83 u/L | CREATININE [1]: 0.18 mg/dL | GLUCOSE [1]: 154.5 mg/dL | LACTATE DEHYDROGENASE [1]: 301.83 u/L | LIPASE [1]: 11.17 u/L | PHOSPHORUS [1]: 12.08 mg/dL | POTASSIUM [1]: 6.12 MEQ/L | SODIUM [1]: 145.2 MEQ/L | TOTAL BILIRUBIN [1]: 0.17 mg/dL | TOTAL PROTEIN [1]: 6.1 G/DL | URIC ACID [1]: 1.57 mg/dL | ABSOLUTE BASOPHIL [2]: 0 CELLS/uL | ABSOLUTE EOSINOPHIL [2]: 19.33 CELLS/uL | ABSOLUTE LYMPHOCYTE [2]: 12577.83 CELLS/uL | ABSOLUTE MONOCYTE [2]: 106.33 CELLS/uL | ABSOLUTE SEGMENTED NEUTROPHIL [2]: 896.5 CELLS/uL | BASOPHIL [2]: 0% | EOSINOPHIL [2]: 0.17% | ERYTHROCYTE COUNT [2]: 5.84 x10E6/uL | HEMATOCRIT [2]: 36.88% | HEMOGLOBIN [2]: 14.48 G/DL | LEUKOCYTE COUNT [2]: 13.6 x10E3/uL | LYMPHOCYTE [2]: 92.17% | MEAN CORPUSCULAR HEMOGLOBIN [2]: 24.85 pg | MEAN CORPUSCULAR HEMOGLOBIN CONCENTRATION [2]: 39.3 G/DL | MEAN CORPUSCULAR VOLUME [2]: 63.23 fL | MONOCYTE [2]: 0.83% | NEUTROPHIL [2]: 6.83% | NUCLEATED RED BLOOD CELLS [2]: 0 /100WBC | PLATELET COUNT [2]: 1223.5 x10E3/uL | ALANINE AMINOTRANSFERASE [2]: 55.33 u/L | ALBUMIN [2]: 4.08 G/DL | ALKALINE PHOSPHATASE [2]: 355.5 u/L | ASPARTATE AMINOTRANSFERASE [2]: 87.67 u/L | BLOOD UREA NITROGEN [2]: 15.33 mg/dL | CARBON DIOXIDE [2]: 33.83 mmol/L | CHLORIDE [2]: 99.67 MEQ/L | CHOLESTEROL [2]: 72.17 mg/dL | CREATINE PHOSPHOKINASE [2]: 268.33 u/L | CREATININE [2]: 0.15 mg/dL | GLUCOSE [2]: 152.5 mg/dL | LACTATE DEHYDROGENASE [2]: 212.67 u/L | LIPASE [2]: 10.83 u/L | PHOSPHORUS [2]: 11.65 mg/dL | POTASSIUM [2]: 6.73 MEQ/L | SODIUM [2]: 142.43 MEQ/L | TOTAL BILIRUBIN [2]: 0.23 mg/dL | TOTAL PROTEIN [2]: 6.07 G/DL | URIC ACID [2]: 1.7 mg/dL | ABSOLUTE BASOPHIL [3]: 0 CELLS/uL | ABSOLUTE EOSINOPHIL [3]: 0 CELLS/uL | ABSOLUTE LYMPHOCYTE [3]: 15455.33 CELLS/uL | ABSOLUTE MONOCYTE [3]: 295 CELLS/uL | ABSOLUTE SEGMENTED NEUTROPHIL [3]: 1116.33 CELLS/uL | BASOPHIL [3]: 0% | EOSINOPHIL [3]: 0% | ERYTHROCYTE COUNT [3]: 5.86 x10E6/uL | HEMATOCRIT [3]: 37.3% | HEMOGLOBIN [3]: 14.83 G/DL | LEUKOCYTE COUNT [3]: 16.87 x10E3/uL | LYMPHOCYTE [3]: 91.67% | MEAN CORPUSCULAR HEMOGLOBIN [3]: 25.33 pg | MEAN CORPUSCULAR HEMOGLOBIN CONCENTRATION [3]: 39.77 G/DL | MEAN CORPUSCULAR VOLUME [3]: 63.67 fL | MONOCYTE [3]: 1.67% | NEUTROPHIL [3]: 6.67% | NUCLEATED RED BLOOD CELLS [3]: 0 /100WBC | PLATELET COUNT [3]: 1367.67 x10E3/uL | ALANINE AMINOTRANSFERASE [3]: 54.67 u/L | ALBUMIN [3]: 4.17 G/DL | ALKALINE PHOSPHATASE [3]: 303 u/L | ASPARTATE AMINOTRANSFERASE [3]: 88.33 u/L | BLOOD UREA NITROGEN [3]: 12 mg/dL | CARBON DIOXIDE [3]: 32.67 mmol/L | CHLORIDE [3]: 101.67 MEQ/L | CHOLESTEROL [3]: 70.67 mg/dL | CREATINE PHOSPHOKINASE [3]: 534 u/L | CREATININE [3]: 0.2 mg/dL | GLUCOSE [3]: 151 mg/dL | LACTATE DEHYDROGENASE [3]: 218 u/L | LIPASE [3]: 13.67 u/L | PHOSPHORUS [3]: 12.87 mg/dL | POTASSIUM [3]: 6.77 MEQ/L | SODIUM [3]: 145.17 MEQ/L | TOTAL BILIRUBIN [3]: 0.17 mg/dL | TOTAL PROTEIN [3]: 5.9 G/DL | URIC ACID [3]: 1.7 mg/dL
